Among the data in patent US10538521B2, “Pyrimidine derivative having antimalarial activity” (CARNA BIOSCIENCES, INC., priority 2016, dated 2020) are IC50 values, retold here.

As a reminder, the IC50 is the concentration needed to halve the response being measured.

Experiment [1] deals with K1 strain, a drug resistant strain of Plasmodium falciparum. The experiment can be described thus: In vitro antimalarial assay (p-LDH, Malstat), K1 strain. The following applies: P. falciparum K1 (drug resistant), 72 h culture, p-LDH readout, read-out: Antimalarial activity (IC50 value), Strain K1. It counts as cell-based. The source says: (§1) For the evaluation of the antimalarial activity of the compound of the present invention, K1 strain, a drug resistant strain of Plasmodium falciparum, and FCR3 strain, a drug sensitive strain thereof, which were generous gift from Professor Kiyoshi Kita of the Graduate School of Medicine and Faculty of Medicine, the University of Tokyo, were used to measure the in vitro antimalarial activity of the compound against those Plasmodium species according to the method established by Otoguro et al. (Otoguro, K., Kohana, A., Manabe, C., Ishiyama, A., Ui, H., Shiomi, K., Yamada, H. & Omura, S.: Potent antimalarial activity of polyether antibiotic, X-206. J. Antibiot., 54: 658-663, (2001)).
(§2) The parasites were grown based on a slightly modified method from the original method reported by Trager and Jensen (Trager, W. and Jensen, J.: Human malaria parasites in continuous culture, Science, 193: 673-677, (1976)), and those which were maintained and sub-cultured by the method were used. More specifically, in a culture dish, erythrocytes infected with the protozoa, which had been sub-cultured using a RPMI 1640 medium to which 10% human plasma had been added and fresh human erythrocytes, were diluted (hematocrit value: 2 to 5%, parasitaemia: 0.25 to 1%), and were cultured at 37° C. in a mixed gas of 3% O2-4% CO2-93% N2, and continuously cultured while changing the medium and adding fresh erythrocytes at 2- or 3-day intervals.
(§3) A drug susceptibility test was performed by modifying the method established by Desjardins et al. (Desjardins, R. E., Canfield, C. J., Haynes, D. E. and Chulay, J. D.: Quantitative assessment of antimalarial activity in vitro by a semiautomated microdilution technique. Antimicrob. Agents Chemother., 16: 710-718 (1979)). More specifically, 190 μL of a suspension of protozoa which had been precultured (hematocrit value: 2%, parasitaemia: 0.5 or 1%) and 10 μL of a solution of a test compound (5% DMSO solution) serially diluted so that the final concentration was 12.5 to 0.0001 μM were put in each well of a 96-well plate, and after mixing, the same was cultured for 72 hours in the above mixed gas.
(§4) For the measurement of the growth of protozoa, the method established by Makler (Makler, M. T., Rise, J. M., Williams, J. A., Bancroft, J. E., Piper, R. C., Gibbins, B. L. and Hinrichs, D. J.: Parasite lactate dehydrogenase as an Assay for Plasmodium falciparum drug sensitivity, Am. J. Med. Hyg., 48: 739-741 (1993)) was modified to colorimetrically determine parasite lactate dehydrogenase (p-LDH) using Malstat reagent (Flow Inc., USA).
(§5) More specifically, 72 hours after the culture, the 96-well plate was directly frozen at −20° C. for 18 hours and melted at 37° C. to hemolyze the protozoan-infected erythrocytes and destroy the protozoa to prepare a crude enzyme solution. 100 μL of Malstat reagent and 20 μL of the crude enzyme solution were added to and mixed in each well of another 96-well plate, and after reacting for 15 minutes at room temperature, 20 μL of a nitroblue tetrazolium 2 mg/mL phenazine ethosulfate 0.1 mg/mL=1:1 solution was added to the respective wells, and reaction was performed in dark conditions at room temperature for 2 hours.
(§6) The absorbance of the blue formazan product formed by the reaction was measured at a measurement wavelength of 655 nm by using a microplate reader (Labsystems, Finland) to colorimetrically determine the growth of the protozoa. The 50% growth inhibitory concentration for the protozoa of the compound (IC50 value) was determined based on the concentration-response curve of the compound.

For experiment [2], the system named is FCR3 strain, a drug sensitive strain of Plasmodium falciparum. The experiment can be described thus: In vitro antimalarial assay (p-LDH, Malstat), FCR3 strain. The experiment is classed as cell-based. Particulars: P. falciparum FCR3 (drug sensitive), 72 h culture, p-LDH readout, read-out: Antimalarial activity (IC50 value), Strain FCR3.
From the text: as §1, §2, §3, §4, §5, §6

Consider `COc1ccnc(Nc2nc(Nc3ccn4ccnc4c3)cc(N3CCOCC3)n2)c1` [Example 48, N4-(imidazo[1,2-a]pyridin-7-yl)-N2-(4-methoxypyridin-2-yl)-6-morpholinopyrimidine-2,4-diamine], for which the 50% inhibitory concentration (IC50) in experiment [1] and in experiment [2] was less than 100 nM throughout.

`O=[N+]([O-])c1ccnc(Nc2nc(Nc3ccn4ccnc4c3)cc(N3CCOCC3)n2)c1` [Example 49, N4-(imidazo[1,2-a]pyridin-7-yl)-6-morpholino-N2-(4-nitropyridin-2-yl)pyrimidine-2,4-diamine]: the IC50 in experiment [1] lay within 1000 to 10000 nM; in experiment [2], 100 to 1000 nM.

`Cc1ccnc(Nc2nc(N)cc(Nc3ccn4ccnc4c3)n2)c1` [Example 50, N4-(imidazo[1,2-a]pyridin-7-yl)-N2-(4-methylpyridin-2-yl) pyrimidine-2,4,6-triamine]: the IC50 in experiment [1] and in experiment [2] was less than 100 nM each time.

For `CCOc1ccc(Nc2nc(Nc3ccn4ccnc4c3)cc(N3CCCCC3)n2)cn1` [Example 51, N2-(6-ethoxypyridin-3-yl)-N4-(imidazo[1,2-a]pyridin-7-yl)-6-(piperidin-1-yl)pyrimidine-2,4-diamine], the IC50 in experiment [1] lay within 1000 to 10000 nM; in experiment [2] it was 100 to 1000 nM.

Consider `Cc1nc(Nc2nc(Nc3ccn4ccnc4c3)cc(N3CCOCC3)n2)cc(C2CC2)c1F` [Example 53, N2-(4-Cyclopropyl-5-fluoro-6-methylpyridin-2-yl)-N4-(imidazo [1,2-a]pyridin-7-yl)-6-morpholinopyrimidine-2,4-diamine], for which the IC50 in experiment [1] and in experiment [2] was 100 to 1000 nM each time.

In the case of `Cc1cccc(Nc2nc(N)cc(Nc3ccn4ccnc4c3)n2)n1` [Example 54, N4-(Imidazo[1,2-a]pyridin-7-yl)-N2-(6-methylpyridin-2-yl) pyrimidine-2,4,6-triamine], the IC50 in experiment [1] and in experiment [2] was less than 100 nM each time.

For the compound `CC(C)Oc1ccc(Nc2nc(Nc3ccn4ccnc4c3)cc(N3CCCCC3)n2)cn1` [Example 55, N4-(Imidazo[1,2-a]pyridin-7-yl)-N2-(6-isopropoxypyridin-3-yl)-6-(piperidin-1-yl) pyrimidine-2,4-diamine], the figures for the IC50 in experiment [1] and in experiment [2] were 1000 to 10000 nM and 100 to 1000 nM, respectively.

With `CCOc1cc(Nc2ccn3ccnc3c2)nc(Nc2ccc(OC(C)C)nc2)n1` [Example 57, 6-Ethoxy-N4-(Imidazo[1,2-a]pyridin-7-yl)-N2-(6-isopropoxypyridin-3-yl)pyrimidine-2,4-diamine], the IC50 was in the range of 1000 to 10000 nM in experiment [1] and 100 to 1000 nM in experiment [2].

As to `Cc1cc(C)nc(Nc2nc(N)cc(Nc3ccn4ccnc4c3)n2)c1` [Example 58, N2-(4,6-dimethylpyridin-2-yl)-N4-(imidazo[1,2-a]pyridin-7-yl)pyrimidine-2,4,6-triamine], the IC50 in experiment [1] and in experiment [2] was less than 100 nM in each case.

For the compound `Cc1ccc(Nc2nc(Nc3ccn4ccnc4c3)cc(N3CCOCC3)n2)cn1` [Example 60, N4-(imidazo[1,2-a]pyridin-7-yl)-N2-(6-methylpyridin-3-yl)-6-morpholinopyrimidine-2,4-diamine], the IC50 in experiment [1] and in experiment [2] was less than 100 nM in each case.

As for `CN(C)CCOc1ccc(Nc2nc(Nc3ccn4ccnc4c3)cc(N3CCOCC3)n2)cn1` [Example 61, N2-(6-(2-(dimethylamino)ethoxy)pyridin-3-yl)-N4-(imidazo[1,2-a]pyridin-7-yl)-6-morpholino-pyrimidine-2,4-diamine], the IC50 in experiment [1] lay in the range of 1000 to 10000 nM; in experiment [2], 100 to 1000 nM.

For the compound `CCCCOc1ccc(Nc2nc(Nc3ccn4ccnc4c3)cc(N3CCOCC3)n2)cn1` [Example 62, N2-(6-butoxypyridin-3-yl)-N4-(imidazo[1,2-a]pyridin-7-yl)-6-morpholinopyrimidine-2,4-diamine], the half-maximal inhibitory concentration (IC50) in experiment [1] and in experiment [2] was 100 to 1000 nM each time.

Consider `CC(C)(C)Oc1ccc(Nc2nc(Nc3ccn4ccnc4c3)cc(N3CCOCC3)n2)cn1` [Example 63, N2-(6-(tert-butoxy)pyridin-3-yl)-N4-(imidazo[1,2-a]pyridin-7-yl)-6-morpholinopyrimidine-2,4-diamine], for which the IC50 in experiment [1] and in experiment [2] was 100 to 1000 nM each time.

Take `CC(C)COc1ccc(Nc2nc(Nc3ccn4ccnc4c3)cc(N3CCOCC3)n2)cn1` [Example 64, N4-(imidazo[1,2-a]pyridin-7-yl)-N2-(6-isobutoxypyridin-3-yl)-6-morpholinopyrimidine-2,4-diamine]: the IC50 in experiment [1] is 100 to 1000 nM; in experiment [2], less than 100 nM.

As for `CC(C)(C)COc1ccc(Nc2nc(Nc3ccn4ccnc4c3)cc(N3CCOCC3)n2)cn1` [Example 65, N4-(imidazo[1,2-a]pyridin-7-yl)-6-morpholino-N2-(6-(neopentyloxy)pyridin-3-yl)pyrimidine-2,4-diamine], the IC50 in experiment [1] and in experiment [2] was 100 to 1000 nM throughout.

Consider `COCCOc1ccc(Nc2nc(Nc3ccn4ccnc4c3)cc(N3CCOCC3)n2)cn1` [Example 66, N4-(imidazo[1,2-a]pyridin-7-yl)-N2-(6-(2-methoxyethoxy)-pyridin-3-yl)-6-morpholino-pyrimidine-2,4-diamine], for which the IC50 in experiment [1] and in experiment [2] was 100 to 1000 nM each time.

Consider `CC(C)(C)c1ccnc(Nc2nc(Nc3ccn4ccnc4c3)cc(N3CCOCC3)n2)c1` [Example 67, N2-(4-(tert-butyl)pyridin-2-yl)-N4-(imidazo[1,2-a]pyridin-7-yl)-6-morpholinopyrimidine-2,4-diamine], for which the IC50 in experiment [1] and in experiment [2] was 100 to 1000 nM throughout.

Regarding `CCCOc1ccc(Nc2nc(Nc3ccn4ccnc4c3)cc(N3CCOCC3)n2)cn1` [Example 69, N4-(imidazo[1,2-a]pyridin-7-yl)-6-morpholino-N2-(6-propoxy-pyridin-3-yl)pyrimidine-2,4-diamine], the IC50 was 100 to 1000 nM in experiment [1] and less than 100 nM in experiment [2].

`CC(C)c1ccnc(Nc2nc(Nc3ccn4ccnc4c3)cc(N3CCOCC3)n2)c1` [Example 70, N4-(imidazo[1,2-a]pyridin-7-yl)-N2-(4-isopropylpyridin-2-yl)-6-morpholinopyrimidine-2,4-diamine]: the IC50 in experiment [1] and in experiment [2] was less than 100 nM each time.

Take `CCc1ccnc(Nc2nc(Nc3ccn4ccnc4c3)cc(N3CCCCC3)n2)c1` [Example 71, N2-(4-ethylpyridin-2-yl)-N4-(imidazo[1,2-a]pyridin-7-yl)-6-(piperidin-1-yl)pyrimidine-2,4-diamine]: the IC50 in experiment [1] and in experiment [2] was less than 100 nM in each case.

Regarding `CC(C)(C)c1ccnc(Nc2nc(Nc3ccn4ccnc4c3)cc(N3CCCCC3)n2)c1` [Example 72, N2-(4-(tert-butyl)pyridin-2-yl)-N4-(imidazo[1,2-a]pyridin-7-yl)-6-(piperidin-1-yl)pyrimidine-2,4-diamine], the concentration for half-maximal inhibition (IC50) in experiment [1] fell in the range of 1000 to 10000 nM; in experiment [2] it was 100 to 1000 nM.

`CC(C)c1ccnc(Nc2nc(Nc3ccn4ccnc4c3)cc(N3CCCCC3)n2)c1` [Example 73, N4-(imidazo[1,2-a]pyridin-7-yl)-N2-(4-isopropylpyridin-2-yl)-6-(piperidin-1-yl)pyrimidine-2,4-diamine]: the half-inhibitory concentration (IC50) in experiment [1] and in experiment [2] was 100 to 1000 nM throughout.

Take `CCCc1ccnc(Nc2nc(Nc3ccn4ccnc4c3)cc(N3CCOCC3)n2)c1` [Example 74, N4-(imidazo[1,2-a]pyridin-7-yl)-6-morpholino-N2-(4-propylpyridin-2-yl)pyrimidine-2,4-diamine]: the half-maximal inhibitory concentration (IC50) in experiment [1] was 100 to 1000 nM; in experiment [2] it was less than 100 nM.

On to `CCCc1ccnc(Nc2nc(Nc3ccn4ccnc4c3)cc(N3CCCCC3)n2)c1` [Example 75, N4-(imidazo[1,2-a]pyridin-7-yl)-6-(piperidin-1-yl)-N2-(4-propylpyridin-2-yl)pyrimidine-2,4-diamine], for which the results for the IC50 in experiment [1] and in experiment [2] were 100 to 1000 nM and less than 100 nM, respectively.
